Source: PubChem BioAssay (NCI)
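Grown in 96-well plates, cells were treated for 48 hours with each compound at five concentrations. Insufficient inhibition: endpoint recorded as highest concentration tested. TGI denotes the concentration required for complete inhibition of growth.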

What follows are molecules tested on CCRF-CEM leukemia (assay: NCI tumour cell line growth inhibition, 48 h).

Going from `N#C/C(C(=O)Nc1ccccc1)=C(/N)N1CCOCC1` to `Cc1nc2ccccc2c(=O)n1NC(=O)c1ccc(CS)cc1`, the TGI falls from greater than 100 µM to 3.6 µM.

`CS(=O)(=O)Nc1ccc(N2Cc3cnc4ccc5[nH]ccc2c5c34)cc1` and `CN1C(=O)N/C(=C\c2ccc(S(=O)(=O)NN)cc2)C1=O` cannot be ordered by TGI: greater than 100 µM for the first, greater than 100 µM for the second.

`COc1ccc(C(=O)Sc2c(-c3ccccc3)c(=O)n(-c3ccccc3)c(=S)n2-c2ccccc2)cc1` and `COc1nc(C(=O)NNC(=O)c2nc(OC)c3ccccc3c2-c2ccccc2)c(-c2ccccc2)c2ccccc12` cannot be ordered by TGI: greater than 100 µM for the first, greater than 100 µM for the second.

`CCc1nc(N)nc(N)c1-c1ccc(Cl)c(Cl)c1` and `COc1ccc2nc3ccc(OC)cc3c(S(=O)CCCl)c2c1` (stereo not drawn) cannot be ordered by TGI: greater than 100 µM for the first, greater than 23.8 µM for the second.

Going from `COCCOCc1nc(C#N)c(N)o1` to `CC(=O)OCc1cc(CCC(=O)NCCNc2c3ccccc3nc3ccccc23)cc(COC(C)=O)c1O[Si](C)(C)C(C)(C)C`, the TGI falls from greater than 100 µM to 20.5 µM.

`CC1=C(C#N)C(C#N)(C#N)C(NN(C)C)C1` (stereo not drawn) and `CC1(CCCO)CCCCCC(C)(CCCO)C1=O` (stereo not drawn) cannot be ordered by TGI: greater than 100 µM for the first, greater than 100 µM for the second.

`CCSc1n/c(=C\c2ccco2)c2nnnn12` and `CNc1ccc(OC)cc1S(=O)(=O)c1ccccc1[N+](=O)[O-]` cannot be ordered by TGI: greater than 100 µM for the first, greater than 100 µM for the second.

`COc1cc(Nc2cnc3cc(F)c(F)cc3n2)cc(OC)c1OC` was tested, and the TGI was greater than 100 µM.

What follows are molecules tested on DU-145 prostate (assay: NCI tumour cell line growth inhibition, 48 h).

`O=Cc1ccc2c(c1)CC1(C2)Cc2ccc3c(c2C1)CCC3` (stereo not drawn) and `CN1C(=O)N/C(=C\c2ccc(S(=O)(=O)NN)cc2)C1=O` cannot be ordered by TGI: greater than 69 µM for the first, greater than 100 µM for the second.

Compared with `CC(=O)Nc1cc(C(=O)Nc2cc(C(=O)N3CC(CCl)c4c3cc(N)c3ccccc43)nn2C)nn1C` (stereo not drawn), `CC(=O)OCc1cc(CCC(=O)NCCNc2c3ccccc3nc3ccccc23)cc(COC(C)=O)c1O[Si](C)(C)C(C)(C)C` is 1600-fold higher in TGI: 0.018 µM for the first, 28.1 µM for the second.

`O=C(O)c1n[nH]nc1Cl` and `NC(Cc1cccc([N+](=O)[O-])c1)C(=O)O` (stereo not drawn) cannot be ordered by TGI: greater than 100 µM for the first, greater than 100 µM for the second.

`C=C(C)C(CC=C(C)C)CC12CC(CC=C(C)C)C(C)(C)C(CC=C(C)C)(C(=O)C(Cc3ccc(O)c(O)c3)=C1O)C2=O` (stereo not drawn) and `CCCCCN=Cc1c(O)c(O)c(C(C)C)c2cc(C)c(-c3c(C)cc4c(C(C)C)c(O)c(O)c(C=NCCCCC)c4c3O)c(O)c12` cannot be ordered by TGI: greater than 100 µM for the first, greater than 100 µM for the second.

`CCC(=O)NC(Nc1cccc(F)c1C)(C(F)(F)F)C(F)(F)F` and `O/N=C1/COC(C(F)(F)F)(C(F)(F)F)C1` cannot be ordered by TGI: greater than 100 µM for the first, greater than 100 µM for the second.

`Clc1c(Cl)c(Cl)c2nn(C3CCCO3)nc2c1Cl` (stereo not drawn) and `CCc1nc(N)nc(N)c1-c1ccc(Cl)c(Cl)c1` cannot be ordered by TGI: greater than 100 µM for the first, greater than 100 µM for the second.

Compared with `N#C/C(C(=O)Nc1ccccc1)=C(/N)N1CCOCC1`, `Cc1nc2ccccc2c(=O)n1NC(=O)c1ccc(CS)cc1` is lower in TGI: greater than 100 µM for the first, 88.2 µM for the second.

`O=c1[nH]c(-c2ccc3ccccc3c2)nc2ccccc12` and `COc1ccc(C(=O)Sc2c(-c3ccccc3)c(=O)n(-c3ccccc3)c(=S)n2-c2ccccc2)cc1` cannot be ordered by TGI: greater than 100 µM for the first, greater than 100 µM for the second.

Going from `CS(=O)(=O)Nc1ccc(N2Cc3cnc4ccc5[nH]ccc2c5c34)cc1` to `CNc1ccc(OC)cc1S(=O)(=O)c1ccccc1[N+](=O)[O-]`, the TGI rises from 40.9 µM to greater than 100 µM.

First: COCCOCc1nc(C#N)c(N)o1
Second: COc1ccc2nc3ccc(OC)cc3c(S(=O)CCCl)c2c1 (stereo not drawn)
The TGI of the first is higher: greater than 100 µM for the first, 4.66 µM for the second.

First: CC1=C(C#N)C(C#N)(C#N)C(NN(C)C)C1 (stereo not drawn)
Second: CC1(CCCO)CCCCCC(C)(CCCO)C1=O (stereo not drawn)
The TGI of the first is lower: 33.8 µM for the first, greater than 100 µM for the second.

`COc1nc(C(=O)NNC(=O)c2nc(OC)c3ccccc3c2-c2ccccc2)c(-c2ccccc2)c2ccccc12` and `COc1cc(Nc2cnc3cc(F)c(F)cc3n2)cc(OC)c1OC` cannot be ordered by TGI: greater than 100 µM for the first, greater than 100 µM for the second.

In the case of `CCSc1n/c(=C\c2ccco2)c2nnnn12`, the TGI is reported as greater than 100 µM.

Each molecule was assayed on HCT-15 colon (assay: NCI tumour cell line growth inhibition, 48 h).

Going from `O=Cc1ccc2c(c1)CC1(C2)Cc2ccc3c(c2C1)CCC3` (stereo not drawn) to `CN1C(=O)N/C(=C\c2ccc(S(=O)(=O)NN)cc2)C1=O`, the TGI rises from 34.4 µM to greater than 100 µM.

First: CC(=O)Nc1cc(C(=O)Nc2cc(C(=O)N3CC(CCl)c4c3cc(N)c3ccccc43)nn2C)nn1C (stereo not drawn)
Second: COc1nc(C(=O)NNC(=O)c2nc(OC)c3ccccc3c2-c2ccccc2)c(-c2ccccc2)c2ccccc12
The TGI of the first is lower: 3.22 µM for the first, greater than 100 µM for the second.

`O=C(O)c1n[nH]nc1Cl` and `NC(Cc1cccc([N+](=O)[O-])c1)C(=O)O` (stereo not drawn) cannot be ordered by TGI: greater than 100 µM for the first, greater than 100 µM for the second.

Compared with `C=C(C)C(CC=C(C)C)CC12CC(CC=C(C)C)C(C)(C)C(CC=C(C)C)(C(=O)C(Cc3ccc(O)c(O)c3)=C1O)C2=O` (stereo not drawn), `CCCCCN=Cc1c(O)c(O)c(C(C)C)c2cc(C)c(-c3c(C)cc4c(C(C)C)c(O)c(O)c(C=NCCCCC)c4c3O)c(O)c12` is lower in TGI: greater than 100 µM for the first, 78 µM for the second.

`CCC(=O)NC(Nc1cccc(F)c1C)(C(F)(F)F)C(F)(F)F` and `O/N=C1/COC(C(F)(F)F)(C(F)(F)F)C1` cannot be ordered by TGI: greater than 100 µM for the first, greater than 100 µM for the second.

`N#C/C(C(=O)Nc1ccccc1)=C(/N)N1CCOCC1` and `O=c1[nH]c(-c2ccc3ccccc3c2)nc2ccccc12` cannot be ordered by TGI: greater than 100 µM for the first, greater than 100 µM for the second.

`CS(=O)(=O)Nc1ccc(N2Cc3cnc4ccc5[nH]ccc2c5c34)cc1` and `COc1ccc(C(=O)Sc2c(-c3ccccc3)c(=O)n(-c3ccccc3)c(=S)n2-c2ccccc2)cc1` cannot be ordered by TGI: greater than 100 µM for the first, greater than 100 µM for the second.

`CCc1nc(N)nc(N)c1-c1ccc(Cl)c(Cl)c1` and `CCSc1n/c(=C\c2ccco2)c2nnnn12` cannot be ordered by TGI: greater than 100 µM for the first, greater than 100 µM for the second.

Compared with `COCCOCc1nc(C#N)c(N)o1`, `CC1=C(C#N)C(C#N)(C#N)C(NN(C)C)C1` (stereo not drawn) is lower in TGI: greater than 100 µM for the first, 21.3 µM for the second.
